Test results as given in US20250154547A1, “REAGENTS AND METHODS USED IN DEPROTECTION OF 3'-O-AMINO POLYNUCLEOTIDES” (priority 2023, published 2025).
Read-outs that look alike come from different tables or passages of the source.

Tests used:
[1] = system: dATP-3′-ONH2, dTTP-3′-ONH2, dCTP-3′-ONH2 or dGTP-3′-ONH2; test: Deprotection study with various 3′-O-NH2 nucleotides (96-well screening, RP-HPLC); details: for pH of highest cleavage rate (optimal pH): 2 mM agent, 1 mM dNTP-3′-ONH2, pH 5.0-8.25
Protocol: The screening tests were performed in a 96-well plate with a reaction volume of 100 uL. Nucleoside triphosphate (dATP-3′-ONH2, dTTP-3′-ONH2, dCTP-3′-ONH2 or dGTP-3′-ONH2) were taken at 1 mM final concentration in one of four 50 mM buffers (A: sodium acetate pH 5.0, B: sodium phosphate pH 6.0, C: sodium phosphate 7.0, D: sodium bicarbonate pH around 8, i.e. 8.25). Tetrasodium carbonylbisphosphonate was added to the dNTPs solutions at 2 mM final concentration and incubated during 5, 20 or 60 mins prior to quenching with 2× concentration of hydroxylamine hydrochloride. The 96-well plate were agitated with Thermomixer at 25° C. or 40° C. The catalytic effect of magnesium on cleavage rate was also investigated. For this purpose, the same experiments were performed in the presence of 20 mM magnesium sulfate. Prior to HPLC analysis reaction mixtures were additionally quenched with acetone to convert 3′-ONH2 to acetoxime form. The samples were analyzed by RP-HPLC with gradual gradient of acetonitrile in 50 mM TEAB buffer (pH 8.5). The cleavage rate was determined based on the ratio between dNTP-3′-OH and dNTP-3′-acetoxime.
Xterra RP C18 Column: 4.6*50 mm, (3.5 um silica), Buffer A: 50 mM TEAA (pH 7.0), Buffer B: 100% ACN. Method: 0-2 min—0% ACN B, 6 min—10% ACN, 8 min—30% ACN, 8-10 min—100% ACN. Flowrate: 1.5 mL/min, no loop insert.

Question: `CC(=O)P(=O)(O)O` [acetylphosphonic acid, Acetylphosphonic acid] was tested. Which “conversion of 3′-ONH2 to 3′-OH” value (dTTP-3′-ONH2; 2 eq, 60 minutes, pH 6 or 7, 25° C.) did it give?
Answer: about 60%

Question: Which “conversion of 3′-ONH2 to 3′-OH” value (dTTP-3′-ONH2; 2 eq deprotecting agent, pH 5, 5 min, 25° C., 1 mM dTTP-3′-ONH2) does the source give for `O=C(P(=O)(O)O)P(=O)(O)O` [carbonylbisphosphonate, Tetrasodium Carbonylbisphosphonate] here?
Answer: 100%

Question: And the “pH of highest cleavage rate (optimal pH)” value [1]?
Answer: around 5

Question: What about the “pH of highest cleavage rate (optimal pH)” value ([1]; listed as carbonyl bisphosphonate) of the same molecule?
Answer: 5.0

Question: And the “Mg (II) impact on cleavage yield” value ([1]; 20 mM magnesium sulfate)?
Answer: Magnesium markedly facilitates the cleavage yield at higher pH

Question: With `O=NO` [sodium nitrite, reference compound] as the molecule, how does the “conversion to dTTP-OH” value (dTTP-3′-ONH2; pH 5) read?
Answer: about 80%

Question: And the “reaction speed with oxyamines compared with carbonylbisphosphonate” value (dTTP-3′-ONH2; pH 5)?
Answer: several times slower
